According to a melting point compilation (Tetko et al.):

Cc1csc(=O)n1CC(=O)O gave a melting point of 193 to 195 °C. N#CC(O)c1ccc([N+](=O)[O-])cc1 (centres undefined) showed a melting point of 109 to 111 °C. With COc1ccc(Cl)cc1CC(=O)O the melting point was 131 to 133 °C. In the case of O=C(O)CC1=NN(c2ccc(Cl)cc2Cl)C(=O)C1, the melting point is reported as 179 to 181 °C. Compound OCc1cc(C23CC4CC(CC(C4)C2)C3)n[nH]1 has a melting point of 159 to 161 °C. For O=C(O)c1ccc(CNC2=NS(=O)(=O)c3ccccc32)cc1, the melting point was 303 to 305 °C. In the case of Cc1cccc(C=C(C(=O)O)c2cccs2)c1, the melting point is reported as 158 to 160 °C. Compound CC(C)Oc1cc(Br)cc(C(=O)O)c1 has a melting point of 126 to 128 °C. Compound Cc1c(C(=O)O)oc2c(F)cccc12 has a melting point of 236 to 238 °C. Fc1ccc(Oc2ccncc2)c(Br)c1 gave a melting point of 74 to 76 °C. With COC(=O)c1cnn2c1CCCC2 the melting point was 64 to 66 °C. Compound OCc1ccc(OCc2cccs2)cc1 has a melting point of 68 to 70 °C. With N#Cc1c(CCl)cn2ccccc12 the melting point was 143 to 145 °C. Work on Cn1nc(Br)c2c(=O)[nH]cnc21 yielded a melting point of 296 to 298 °C. For COc1ccc(Nc2ccccc2)cc1, the melting point was 104 to 106 °C. With CNC(=O)c1ccc([N+](=O)[O-])cc1Cl the melting point was 166 to 168 °C. Clc1ccnc(C2=NCCO2)c1 gave a melting point of 73 to 75 °C. Compound N#Cc1cc(C(F)(F)F)ccc1C(=O)O has a melting point of 113 to 115 °C. Work on Cc1cc(C(C)(C)C)cc(C)c1S(=O)(=O)Cl yielded a melting point of 113 to 115 °C. For O=C(O)CCn1ccc2cc(Cl)ccc21, the melting point was 59 to 61 °C. For CC(C)(C)CNC(N)=O, the melting point was 148 to 150 °C. O=CC1=Cc2c(ccc3ccccc23)OC1 showed a melting point of 144 to 146 °C. In the case of Cc1[nH]c2ccc(Oc3ccccc3)cc2c(=O)c1C, the melting point is reported as 289 to 291 °C. For Cc1cccc(NC(=O)CCl)c1, the melting point was 128 to 130 °C. In the case of CCOC(=O)c1c(C)[nH]c(C(C)=O)c1C, the melting point is reported as 115 to 117 °C. Work on O=C(O)c1cc(O)cs1 yielded a melting point of 206 to 208 °C. Compound Cn1c(S)nnc1C(F)F has a melting point of 171 to 173 °C. Work on c1ccc(C2COCCN2)cc1 (centres undefined) yielded a melting point of 74 to 76 °C. In the case of O=C(O)Cc1cccc(OCC(F)(F)F)c1, the melting point is reported as 99 to 101 °C. With N#Cc1c(C(F)(F)F)cc(=O)[nH]c1SCC(=O)O the melting point was 200 to 204 °C. With Cc1ccc(-c2ccc(C=O)s2)cc1 the melting point was 87 to 89 °C. Compound Cc1cccc(-c2nnc(CO)o2)c1 has a melting point of 82 to 84 °C. Work on CC1CCCCN1c1cc(C(=O)O)ccn1 (centres undefined) yielded a melting point of 164 to 166 °C. For CN1C(=O)CCC(C(=O)O)C1c1cccs1 (centres undefined), the melting point was 154 to 156 °C. In the case of Cc1cccc(Cl)c1NC(=O)CBr, the melting point is reported as 139 to 141 °C. For CCSc1ccc(C(=O)O)cn1, the melting point was 123 to 125 °C. For NC(=O)NCc1ccccn1, the melting point was 139 to 141 °C. In the case of Cc1c(C(=O)O)c(O)nc2ccccc12, the melting point is reported as 254 to 256 °C. Compound N#Cc1ccc(NCC(=O)O)nc1 has a melting point of 167 to 169 °C. Work on BrCC1CSc2nnc(-c3ccccc3)n21 (centres undefined) yielded a melting point of 157 to 159 °C. In the case of Cc1ccc2ccccc2c1S(=O)(=O)Cl, the melting point is reported as 76 to 78 °C. For Nc1cccc(CN2CCC(O)CC2)c1, the melting point was 146 to 148 °C. O=C(Cc1ccccc1Cl)c1ccccc1 showed a melting point of 68 to 70 °C. In the case of CN(c1ccccc1C(=O)O)S(C)(=O)=O, the melting point is reported as 146 to 148 °C. For NC(=S)NCC(F)(F)F, the melting point was 154 to 156 °C. Work on COc1ccccc1NC(=O)CC(=O)Nc1ccccc1OC yielded a melting point of 154 to 156 °C. For COc1ccc(Br)c(-c2nnn[nH]2)c1, the melting point was 209 to 211 °C. CC(=O)c1cccc(NC(=O)C(C)Cl)c1 (centres undefined) gave a melting point of 111 to 113 °C. CSc1ccc(S(=O)(=O)Cl)cc1 showed a melting point of 46 to 48 °C. Compound Cc1cc2c(cc1Br)NC(=O)C(C)O2 (centres undefined) has a melting point of 208 to 210 °C. COc1cc(C(=O)O)c([N+](=O)[O-])cc1OCC#N showed a melting point of 149 to 151 °C. COc1ccc(-c2ccc(CCC(=O)O)o2)cc1 gave a melting point of 142 to 144 °C. Work on Oc1ncnc2c(F)cc(Br)cc12 yielded a melting point of 299 to 301 °C. CC1CCCN(S(=O)(=O)c2ccc(N)cc2)C1 (centres undefined) gave a melting point of 129 to 131 °C. With COc1cc(C=O)ccc1OC(=O)c1ccc(F)cc1 the melting point was 100 to 102 °C. Compound O=C1CCCc2sccc2N1 has a melting point of 119 to 121 °C. Cn1ncnc1COc1ccc(S(=O)(=O)Cl)cc1 gave a melting point of 114 to 116 °C. In the case of O=S1(=O)Cc2ccc(Cl)cc2N1, the melting point is reported as 149 to 151 °C. In the case of O=C1OC(C(O)CO)C(O)=C1O (centres undefined), the melting point is reported as 192 to 196 °C. In the case of O=C(O)c1nnn(-c2cccc(F)c2)c1C(F)(F)F, the melting point is reported as 130 to 132 °C. Fc1ccccc1-n1cnnc1S showed a melting point of 167 to 169 °C. COc1ccnc(NCC(=O)O)n1 showed a melting point of 190 to 192 °C. Work on c1ccc(COc2cccc3[nH]ncc23)cc1 yielded a melting point of 125 to 127 °C. CC1(C)C(=O)Nc2ccc(C(=O)CCl)cc21 gave a melting point of 233 to 235 °C. In the case of C#CCN1C(=O)C(=O)c2cc(Br)ccc21, the melting point is reported as 164 to 166 °C. With CC(C)c1ccc(-n2ccnc2SCC(=O)O)cc1 the melting point was 80 to 82 °C. For Nc1ccc(CC(=O)N2CCSCC2)cc1, the melting point was 118 to 120 °C. Compound Nc1nc(-c2cc3ccccc3o2)cs1 has a melting point of 243 to 245 °C. Work on CCOC(=O)/C(C#N)=C(\N)C(Cl)(Cl)Cl yielded a melting point of 94 to 96 °C. For Cc1ccc(NCCC(=O)O)nc1, the melting point was 201 to 203 °C. Cc1ccc(-n2[nH]c(C(=O)O)c(CCO)c2=O)cc1 showed a melting point of 199 to 201 °C. Fc1cccc(Cn2cc(Br)cn2)c1F showed a melting point of 53 to 55 °C. With CS(=O)(=O)Cc1c(N)cccc1F the melting point was 129 to 131 °C. CC(C)(C(=O)NO)c1ccccc1 showed a melting point of 144 to 146 °C. Work on Nc1nnc(-c2cccc(Br)c2)[nH]1 yielded a melting point of 219 to 221 °C. O=[N+]([O-])c1cc(S(=O)(=O)N2CCCCC2)ccc1Cl gave a melting point of 61 to 63 °C. Compound COCc1ccc(CNC(=O)CCl)cc1 has a melting point of 83 to 85 °C. Work on Nc1cc2c(cc1Br)NC(=O)CO2 yielded a melting point of 209 to 211 °C. For Nc1c(-c2ccccn2)nc2ccccn12, the melting point was 199 to 201 °C. With CCc1cc(=O)c2ccccc2[nH]1 the melting point was 174 to 176 °C. COc1cc(/C=C/C(=O)O)cc2c1OCCO2 gave a melting point of 182 to 185 °C. For O=C1CCc2cc(C(=O)CCl)ccc2N1, the melting point was 212 to 214 °C. With CS(=O)(=O)c1cccc(Cl)c1C(=O)O the melting point was 147 to 149 °C. With Cc1ccc(C(N)Cn2ccnc2)c(C)c1 (centres undefined) the melting point was 79 to 81 °C. In the case of Cn1cc(CN=[N+]=[N-])c(-c2ccc(C#N)cc2)n1, the melting point is reported as 101 to 103 °C. Work on NS(=O)(=O)c1ccc([N+](=O)[O-])nc1 yielded a melting point of 174 to 176 °C. For COc1ccc(S(=O)(=O)Nc2cccc(CN)c2)cc1, the melting point was 125 to 127 °C. N#CCOc1ccccc1C=O showed a melting point of 79 to 81 °C. CCOC(=O)c1cc(Br)ccc1N gave a melting point of 79 to 81 °C. Compound O=C(O)c1oc2ccccc2c1CSc1nnc[nH]1 has a melting point of 159 to 161 °C. With CCC(=O)Nc1cccc(C#N)c1 the melting point was 84 to 86 °C. Compound c1cn2c(n1)CN(C1CCNCC1)CC2 has a melting point of 63 to 65 °C. For CCS(=O)(=O)c1cc(F)ccc1N, the melting point was 43 to 45 °C. In the case of NC1CCN(c2ccccc2Cl)C1=O (centres undefined), the melting point is reported as 70 to 72 °C. With O=C(O)c1cc(-c2cccc3ccccc23)nc2ccccc12 the melting point was 225 to 227 °C. Compound O=C(O)c1ccc(Br)cc1C(F)(F)F has a melting point of 116 to 117 °C. Cn1c(=O)c2sccc2n2c(CCl)nnc12 gave a melting point of 244 to 246 °C. O=C(O)c1cccc(Oc2cccc(Cl)c2)n1 showed a melting point of 96 to 98 °C. Work on CNS(=O)(=O)CCC(=O)OCc1ccccc1 yielded a melting point of 59 to 61 °C. Cc1[nH]c(C(=O)O)c(C)c1C showed a melting point of 80 to 82 °C. Work on N#CCc1ccc(OCc2ccccn2)cc1 yielded a melting point of 76 to 78 °C. Work on O=C(O)Cc1coc2cc(F)ccc12 yielded a melting point of 103 to 105 °C. Compound O=C1C(=O)N(Cc2ccc(Br)cc2)c2ccccc21 has a melting point of 182 to 184 °C. Compound O=C(O)C1CC1C1CC1 (centres undefined) has a melting point of 29 to 31 °C. With O=C(O)C1CC1(Cl)Cl (centres undefined) the melting point was 74 to 76 °C. For CC(C)(C)c1nc2cc(N)ccc2o1, the melting point was 111 to 113 °C. Work on Nc1cc(Cl)cc(C(=O)O)c1F yielded a melting point of 196 to 198 °C. CN(C)CCNC(=O)Cc1ccc(N)cc1 gave a melting point of 145 to 147 °C. Compound O=C(O)c1cccc([N+](=O)[O-])c1N1CCOCC1 has a melting point of 196 to 198 °C. Work on CNC(=O)c1ccc(Cl)c(N)c1 yielded a melting point of 144 to 146 °C. O=C(O)C1Cc2ccccc2CN1C(=O)CCl (centres undefined) gave a melting point of 153 to 155 °C. Work on OCc1cc(Br)cc(CO)c1O yielded a melting point of 164 to 166 °C. In the case of O=C(O)c1cc(F)c(F)c(S(=O)(=O)Cl)c1, the melting point is reported as 154 to 156 °C. CN(C)c1ccc(C#N)cc1F gave a melting point of 34 to 36 °C. CCOC(=O)c1c[nH]c2cc(OC)cc(OC)c2c1=O gave a melting point of 257 to 259 °C. Work on CNS(=O)(=O)c1cc(N)ccc1C yielded a melting point of 133 to 137 °C. O=C(O)c1cc(-c2ccncc2)on1 showed a melting point of 276 to 278 °C. With COc1ncc(Br)cc1CC#N the melting point was 39 to 41 °C. CC(C)(C)NC(=O)c1ccccc1N gave a melting point of 124 to 125 °C. Work on Clc1ccc(-n2ccnc2)nn1 yielded a melting point of 185 to 187 °C. O=c1[nH]cnc2cc(-c3ccc(Cl)cc3)sc12 showed a melting point of 327 to 329 °C. For O=C(Cc1ccc(O)cc1)NC1CCNCC1, the melting point was 211 to 213 °C. With CC(C)(C)OC(=O)N1CCC(c2ccc(C(F)(F)F)cc2)C(N)C1 (centres undefined) the melting point was 77 to 79 °C. For Nc1ccc(-c2nc3ccccc3[nH]2)cn1, the melting point was 352 to 354 °C. Compound COC(=O)CCNc1ccc(F)cc1[N+](=O)[O-] has a melting point of 76 to 78 °C. Compound Cn1ccc(NC(=O)CC#N)n1 has a melting point of 159 to 161 °C. O=C(O)CC1COCCN1 (centres undefined) gave a melting point of 253 to 255 °C. O=C1NC(=O)c2ncccc21 showed a melting point of 241 to 243 °C. With NC(=S)c1cccc(-c2nnc(N)o2)c1 the melting point was 259 to 261 °C. With CNS(=O)(=O)Cc1ccc(C#N)cc1 the melting point was 154 to 158 °C. In the case of CC(C)c1ccc(/C=C(/C(=O)O)c2cccs2)cc1, the melting point is reported as 250 to 252 °C. Compound O=C(O)c1cccc(CN2CCCC2)c1 has a melting point of 196 to 198 °C. For CC(C)c1nnc(N)o1, the melting point was 184 to 186 °C. With O=C(O)c1ccc(NC(=O)C23CC4CC(CC(C4)C2)C3)cc1 the melting point was 284 to 286 °C. Cc1ccc(S(=O)(=O)NCCC(=O)O)cc1 showed a melting point of 148 to 150 °C. With CCCc1ccc(S(N)(=O)=O)cc1 the melting point was 208 to 210 °C. Work on OCc1cc2ccc(Br)cc2[nH]1 yielded a melting point of 115 to 117 °C. COc1ccc(C(=O)Nc2ccccc2C(=O)O)cc1 showed a melting point of 184 to 186 °C. Fc1ccc(NC2CCOCC2)nc1 gave a melting point of 115 to 117 °C. For CC(C)(C)CNC(=O)c1ccc(C(=O)O)cc1, the melting point was 201 to 203 °C. Cc1cc(S(=O)(=O)Cl)ccc1OCCCC(=O)O showed a melting point of 135 to 137 °C. NS(=O)(=O)c1cc(C(=O)O)cc2c1CCCC2 gave a melting point of 275 to 277 °C. CC(C)Nc1ccc(C(=O)O)cn1 showed a melting point of 249 to 251 °C. In the case of NCCc1ccc(CO)cc1, the melting point is reported as 35 to 37 °C.
